According to US20260133193A1, “COMPOSITIONS AND METHODS FOR TREATING INFLAMMATORY DISEASES” (University of Washington, priority 2018, published 2026):

Legend:
Format in all cases: cell-based, human
neutrophils = experiment: Phagocytosis assay in neutrophils (flow cytometry)
Method: To determine whether the reciprocal was true, namely, that TLR activation could inhibit phagocytosis of ICs, the uptake of RNase-treated RNP-ICs was analyzed in presence of the TLR7/8 agonist, R848. […] Specifically, neutrophils were stimulated with R848 prior to incubation with RNase-treated RNP-ICs, HAGG, beads or zymosan. The results are expressed as phagocytosis as compared to no R848 added (% of control). […] Finally, to determine if TLR7/8 activation affected the internalization process and/or the binding ability of the ICs, neutrophils were treated with the cytoskeleton inhibitor Cytochalasin B prior to adding the ICs, thus blocking uptake, but not binding. Specifically, neutrophils, treated with or without R848 followed by cytochalasin B (CytoB, 5 μM), were analyzed for binding and uptake of RNP-ICs by flow cytometry.
SLE IgG, SmRNP and heat-aggregated IgG (HAGG) were labeled with Alexa-647 according to manufacturer's protocol (Life Technologies). Neutrophils, or PBMCs, from healthy individual were stimulated with different ICs, FITC-conjugated latex beads or zymosan (100 μg/mL, Life Technologies) for 30 minutes at 37° C. and immediately analyzed for phagocytosis. In blocking experiments, neutrophils were incubated with 0.1 μM TLR7-9 or control iODN (Enzo Life Sciences), CMK (25 μM, Enzo Life Sciences), cytochalasin B (5 M, Sigma) or antibodies directed against CD16, CD32 or CD64 (all used at 10 μg/mL, BioLegend) for 30 minutes before addition of stimuli. In some experiments, R848, at a concentration of 2 μg/mL, or neutrophil supernatant, was added 30 and 90 minutes before addition of the phagocytic stimuli, respectively.

ncf1 (p47 phox) = experiment: p47 phox (ncf1) S345 phosphorylation, phosphoproteomics and Western blot; details: R848 activation
Method: Another target of TLR7/8 stimulation was ncf1 (p47 phox). Ncf1 was phosphorylated at S345, a known target site involved in activation of the NADPH oxidase complex. […] The experiment was repeated three times; combined results were compared using paired t test (P=0.044). Neutrophils were incubated with R848 in the absence or presence of the PI3K inhibitor Ly294002 and analyzed for pS345 or total levels of p47 phox using Western Blot. The experiment was repeated four times; combined results were compared using paired t test (No stim, P=0.03; R848+LY294002, P=0.0011). […] Briefly, neutrophils were treated with inhibitors of NADPH oxidase prior to addition of R848 and analyzed for cell surface expression of FcgRIIA by flow cytometry. […] Briefly, neutrophils from healthy individuals (HV, n=18) and CGD patients (n=4) were stimulated with R848 and analyzed for FcgRIIA levels by flow cytometry. The data were analyzed using paired t test (HC, P<0.0001) and unpaired t test (HC vs CGD, P=0.0097). Neutrophils from healthy individuals (HV, n=13) and CGD patients (n=3) were activated by R848 and analyzed for CD66b expression by flow cytometry using paired t test (HC, P<0.0001; CGD, P=0.039). […] Briefly, neutrophils were activated with LPS or PAM3CSK4 in presence of DPI and analyzed for FcgRIIA levels by flow cytometry. […]

Akt and S6 = experiment: S6 and Akt phosphorylation by flow cytometry; details: TLR7/8 activation with R848
Method: We next asked which pathway(s) were acting upstream of NADPH oxidase to induce FcgRIIA shedding. […] Phosphorylation of Akt and S6 was determined by flow cytometry upon TLR7/8 activation. The experiment was repeated four times; combined results were compared using paired t test (pS6, P=0.042; pAkt, P=0.037). […] To confirm the role for PI3K in TLR-mediated activation of ROS and subsequent shedding of FcgRIIA, neutrophils were incubated with the PI3K inhibitor LY294002 prior to addition of TLR agonist. Blocking PI3K signaling abrogated TLR-mediated ROS generation, phosphorylation of ncf1 at S345 as well as shedding of FcgRIIA. Briefly, neutrophils, pre-treated with inhibitors of PI3K (LY294002, 10 μM) or NADPH oxidase (DPI, 25 μM), were activated with R848 and analyzed for ROS generation by flow cytometry using DHR123. […] Additionally, neutrophils were pre-treated with the PI3K inhibitor LY294002 (10 μM) and analyzed for R848-mediated shedding of FcgRIIA by flow cytometry. […]
Neutrophils were activated by R848 for 15 minutes, fixed and permeabilized according to manufacturer's instructions (BioLegend), and incubated with a specific antibody recognizing phosphorylated S235/236 in S6 (Cell Signaling) or phosphorylated S473 in Akt (BD Biosciences) for 60 minutes. pS6 and pAkt levels were analyzed by flow cytometry and expressed as percent positive cells as compared to non-stimulated cells.

monocytes = experiment: Monocyte phagocytosis of RNP-ICs; details: RNase exposure or R848 priming
Method: Monocytes were incubated with R848 or neutrophil supernatant prior to addition of RNP-ICs or beads. Phagocytosis was determined by flow cytometry.
SLE IgG, SmRNP and heat-aggregated IgG (HAGG) were labeled with Alexa-647 according to manufacturer's protocol (Life Technologies). Neutrophils, or PBMCs, from healthy individual were stimulated with different ICs, FITC-conjugated latex beads or zymosan (100 μg/mL, Life Technologies) for 30 minutes at 37° C. and immediately analyzed for phagocytosis. […] In some experiments, R848, at a concentration of 2 μg/mL, or neutrophil supernatant, was added 30 and 90 minutes before addition of the phagocytic stimuli, respectively.
Plasmacytoid dendritic cells were identified based on their expression of BDCA-4 (Miltenyi Biotech) and monocytes based on their expression of CD14 (Biolegend). In some experiments neutrophil supernatant (generated by incubating neutrophils with R848 for 90 minutes) were added to PBMCs with or without presence of the pan-protease inhibitor (1×), and expression of FcgRs and phagocytic ability analyzed in monocytes by flow cytometry as described above.

[1] = neutrophils stimulated with R848 before stimuli, vs no R848

Structure (SMILES): CCOCc1nc2c(N)nc3ccccc3c2n1CC(C)(C)O [R848]
- uptake of RNase-treated RNP-ICs and HAGG by neutrophils (neutrophils; [1]): significantly decreased uptake of ICs as well as heat-aggregated IgG (HAGG)
- uptake of beads and zymosan by neutrophils (neutrophils; [1]): increased uptake of beads and zymosan
- binding and uptake of RNP-ICs by neutrophils (neutrophils; with or without R848, followed by cytochalasin B 5 μM): suppressed both IC-mediated binding and subsequent phagocytosis
- phosphorylation of ncf1 (p47 phox) at S345 (ncf1 (p47 phox)): phosphorylated (p47 phox) at S345
- levels of phosphorylated Akt and S6 (Akt and S6): induced increased levels of phosphorylated Akt and S6
- monocyte phagocytosis of RNP-ICs (monocytes): not affected
